{
  "source": "patent US10030058B2",
  "about": "“Modulating gamma-C-cytokine activity” (Bioniz, LLC, priority 2015, dated 2018)",
  "tested_on": "T-cells in HAM/TSP patient PBMC culture",
  "experiment": "Ex vivo spontaneous T-cell proliferation assay using HAM/TSP peripheral blood",
  "assay_type": "cell-based, human",
  "conditions": "FIG. 4D",
  "protocol": "Proliferation assays were performed on HAM/TSP patient blood samples with and without the addition of BNZ-γ. These assays evaluated the ability of BNZ-γ to block the function of cytokines, such as IL-2 and IL-15, present in the ex vivo HAM/TSP patient blood culture and prevent spontaneous T-cell proliferation in these samples.\nIn an ex vivo spontaneous T-cell proliferation assay, PBMC from HAM/TSP patient was cultured at 1×10(6) cells per well of a 96 well plate in RPMI-10% FCS. Increasing concentrations of BNZ-γ peptide were added to each well. As a control, an irrelevant peptide was used in similar fashion. The cells were incubated in a 37° C. CO2 incubator for 3, 4, and 6 days. The amount of 1 uCi of ^3H-thymidine was added to the cells. After an additional 6 hour incubation, cells were harvested their proliferation rate was measured. As indicated in FIG. 4A-FIG. 4D, BNZ-γ peptide inhibits the spontaneous proliferation of T-cells in HAM/TSP culture at a concentration of about 1 ug/ml.\nOther immunological markers were additionally measured in this assay. The percentage of the viral specific CD8 cells was measured during the ex vivo culture using viral protein tetramers. The population of CD4+CD25+ cells, a marker of T-cell activation, as well as Ki67 staining, a marker of T-cell proliferation, was monitored in a flow cytometry assay.",
  "note": "Peptide text beside a SMILES is read from it.",
  "data": [
    {"molecule": "CC[C@H](C)[C@H](N)C(=O)N[C@@H](CCCCN)C(=O)N[C@@H](CCC(=O)O)C(=O)N[C@@H](Cc1ccccc1)C(=O)N[C@@H](CC(C)C)C(=O)N[C@@H](CCC(N)=O)C(=O)N[C@@H](CCCNC(=N)N)C(=O)N[C@@H](Cc1ccccc1)C(=O)N[C@H](C(=O)N[C@@H](Cc1c[nH]cn1)C(=O)N[C@H](C(=O)N[C@H](C(=O)N[C@@H](CCC(N)=O)C(=O)N[C@@H](CO)C(=O)N[C@H](C(=O)N[C@H](C(=O)N[C@@H](CC(N)=O)C(=O)N[C@H](C(=O)N[C@@H](CO)C(=O)O)[C@@H](C)O)[C@@H](C)CC)[C@@H](C)CC)C(C)C)[C@@H](C)CC)[C@@H](C)CC", "note": "[BNZ-γ, I-K-E-F-L-Q-R-F-I-H-I-V-Q-S-I-I-N-T-S] (H-IKEFLQRFIHIVQSIINTS-OH)", "values": [
      {"measurement": "percent of live cells by Guava staining", "value": "not impacted"}
    ]}
  ]
}
